# Legend:
# hERG S624A = target: T1, hERG S624A (Homo sapiens, UniProt Q12809, S624A); assay: Manual patch-clamp (MPC) on hERG S624A, transiently transfected CHO-K1 cells; assay type: cell-based
# T1 construct: expressed in transfected cells; host or cells: CHO-K1 CCL-61 (ATCC), transient, co-transfected with pcDNA3-GFP
# Text: The hERG wild-type and Y652A constructs were kindly provided by Dr. Nicole Schmitt, and the eGFP-pcDNA3 construct was kindly provided by Dr. Antonios Pantazis. The S624A and S649A constructs were generated in-house from the wild-type template using the QuikChange II XL Site-Directed Mutagenesis Kit (Agilent Technologies, Santa Clara, CA, USA), in accordance with the manufacturer’s instructions. Mutagenesis primers were designed using the Agilent QuikChange Primer Design Program. Briefly, PCR amplification was performed according to the recommended cycling conditions, followed by DpnI digestion for 1 h to selectively degrade the parental (methylated) DNA template. The reaction products were then transformed into XL10-Gold ultracompetent cells. All constructs were verified by whole-plasmid sequencing (Eurofins Genomics, Germany) to confirm sequence accuracy.
# Manual patch-clamp (MPC) recordings were performed 24–48 h post-transfection. Patch pipettes were pulled from borosilicate glass and had resistances of 4–7 MΩ when filled with intracellular solution. Coverslips with CHO-K1 cells were placed in a recording chamber and continuously perfused at room temperature (22–24 °C) with extracellular solution using a gravity-fed perfusion system. […] Compounds were applied to the recorded cells by a pressurized, automated OctaFlow perfusion system (ALA Scientific Instruments). […]
# [1] = Literature concentrations detected in post-mortem cases; details: conversion of cited ng/mL value
# KV7.1/KCNE1 = KV7.1/KCNE1 (Homo sapiens, UniProt P51787); assay: Automated patch-clamp (APC, population patch), CHO cells stably expressing human KV7.1/KCNE1; assay type: cell-based
# KV7.1/KCNE1, sequence (P51787 whole entry): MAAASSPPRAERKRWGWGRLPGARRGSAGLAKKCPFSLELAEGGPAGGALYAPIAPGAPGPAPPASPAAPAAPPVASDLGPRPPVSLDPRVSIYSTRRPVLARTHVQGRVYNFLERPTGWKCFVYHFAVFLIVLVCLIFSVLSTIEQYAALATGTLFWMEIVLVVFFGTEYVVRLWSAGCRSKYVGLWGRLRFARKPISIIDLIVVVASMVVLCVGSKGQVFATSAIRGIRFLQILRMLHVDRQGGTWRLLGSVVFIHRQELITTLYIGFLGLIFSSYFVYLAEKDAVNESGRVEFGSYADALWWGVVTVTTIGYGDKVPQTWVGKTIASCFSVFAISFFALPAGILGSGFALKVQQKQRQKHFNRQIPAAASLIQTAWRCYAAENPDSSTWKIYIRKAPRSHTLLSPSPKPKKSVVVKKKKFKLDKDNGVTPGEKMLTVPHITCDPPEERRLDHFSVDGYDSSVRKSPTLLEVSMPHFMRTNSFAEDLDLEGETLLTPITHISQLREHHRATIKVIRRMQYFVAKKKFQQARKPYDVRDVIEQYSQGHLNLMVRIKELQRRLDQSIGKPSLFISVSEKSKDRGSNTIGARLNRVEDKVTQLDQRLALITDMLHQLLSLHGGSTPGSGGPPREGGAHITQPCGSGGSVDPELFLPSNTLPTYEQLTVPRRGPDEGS
# T1 sequence (Q12809 whole entry S624A): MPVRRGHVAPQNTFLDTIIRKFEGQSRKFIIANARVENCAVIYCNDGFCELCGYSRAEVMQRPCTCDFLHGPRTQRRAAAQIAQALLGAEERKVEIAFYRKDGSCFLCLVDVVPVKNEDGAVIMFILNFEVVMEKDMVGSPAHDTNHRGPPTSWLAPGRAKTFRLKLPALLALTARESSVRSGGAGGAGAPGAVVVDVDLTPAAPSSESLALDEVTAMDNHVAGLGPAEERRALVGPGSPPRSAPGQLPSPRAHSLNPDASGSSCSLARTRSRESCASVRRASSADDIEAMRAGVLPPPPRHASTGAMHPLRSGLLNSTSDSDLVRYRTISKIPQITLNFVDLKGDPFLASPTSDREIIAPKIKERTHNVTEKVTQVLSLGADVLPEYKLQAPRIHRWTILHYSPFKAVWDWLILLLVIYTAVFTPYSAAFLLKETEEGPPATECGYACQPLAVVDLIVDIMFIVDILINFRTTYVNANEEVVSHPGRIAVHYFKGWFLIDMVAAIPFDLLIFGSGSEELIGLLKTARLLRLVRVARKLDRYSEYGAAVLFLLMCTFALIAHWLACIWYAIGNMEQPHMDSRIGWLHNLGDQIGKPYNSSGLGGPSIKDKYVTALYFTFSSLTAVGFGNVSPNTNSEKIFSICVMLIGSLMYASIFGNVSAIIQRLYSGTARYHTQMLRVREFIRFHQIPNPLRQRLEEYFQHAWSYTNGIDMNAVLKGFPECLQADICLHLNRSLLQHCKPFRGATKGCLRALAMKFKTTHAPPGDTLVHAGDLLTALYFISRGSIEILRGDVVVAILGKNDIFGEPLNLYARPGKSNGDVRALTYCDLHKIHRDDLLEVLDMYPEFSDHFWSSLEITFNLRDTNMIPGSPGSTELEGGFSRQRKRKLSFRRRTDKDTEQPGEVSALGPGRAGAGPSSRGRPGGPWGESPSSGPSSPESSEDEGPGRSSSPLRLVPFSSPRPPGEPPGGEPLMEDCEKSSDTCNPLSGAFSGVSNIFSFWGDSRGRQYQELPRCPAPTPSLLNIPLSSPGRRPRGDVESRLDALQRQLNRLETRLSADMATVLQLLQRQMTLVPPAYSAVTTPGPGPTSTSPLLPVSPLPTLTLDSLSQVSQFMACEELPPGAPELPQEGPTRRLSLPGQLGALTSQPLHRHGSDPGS
structure (smiles),measurement,setting,value
"COC(=O)C(NC(=O)c1nn(CCCCCF)c2ccccc12)C(C)(C)C (stereo not shown) [5F-MDMB-PINACA, methyl 2-{[1-(5-fluoropentyl)-1H-indazole-3-carbonyl]amino}-3,3-dimethylbutanoate]",IC50,hERG S624A,9.6 µM
same,"concentration in post-mortem cases, blood or serum (converted)",[1]; blood or serum samples,≈ 5.3 nM
same,"concentration in post-mortem case, heart muscle (converted)",[1]; heart muscle,≈ 4.8 nM
same,IC50,KV7.1/KCNE1,71.4 µM
same,Gmax effect on hERG versus KV7.1/KCNE1 (in words),"KV7.1/KCNE1; 10 µM, both channels by APC",effects only on hERG
same,effect on KV7.1/KCNE1 (in words),KV7.1/KCNE1; APC,small effect on KV7.1/KCNE1
same,KV7.1/KCNE1 channel Efficacy (max reduction in Gmax) Gmin,"KV7.1/KCNE1; best fit, 1 = no reduction of Gmax, 0 = complete reduction",0

# Source: PMC13586173, “Synthetic cannabinoid receptor agonists inhibit the cardiac voltage-gated potassium channel hERG” (Acta Pharmacologica Sinica, 2026)
